How the values were obtained:
Test in all cases: ADP-Glo kinase assay (Promega), % inhibition at […]
Format in all cases: biochemical
HER2 = molecular target: T1, HER2 (Homo sapiens, UniProt P04626)
T1 construct: gene ERBB2

[1] = molecular target: insulin-like growth factor 1 receptor (IGF1R) (Homo sapiens, UniProt P08069)
EGFR = EGFR (Homo sapiens, UniProt P00533)
EGFR, sequence (P00533 25-1210): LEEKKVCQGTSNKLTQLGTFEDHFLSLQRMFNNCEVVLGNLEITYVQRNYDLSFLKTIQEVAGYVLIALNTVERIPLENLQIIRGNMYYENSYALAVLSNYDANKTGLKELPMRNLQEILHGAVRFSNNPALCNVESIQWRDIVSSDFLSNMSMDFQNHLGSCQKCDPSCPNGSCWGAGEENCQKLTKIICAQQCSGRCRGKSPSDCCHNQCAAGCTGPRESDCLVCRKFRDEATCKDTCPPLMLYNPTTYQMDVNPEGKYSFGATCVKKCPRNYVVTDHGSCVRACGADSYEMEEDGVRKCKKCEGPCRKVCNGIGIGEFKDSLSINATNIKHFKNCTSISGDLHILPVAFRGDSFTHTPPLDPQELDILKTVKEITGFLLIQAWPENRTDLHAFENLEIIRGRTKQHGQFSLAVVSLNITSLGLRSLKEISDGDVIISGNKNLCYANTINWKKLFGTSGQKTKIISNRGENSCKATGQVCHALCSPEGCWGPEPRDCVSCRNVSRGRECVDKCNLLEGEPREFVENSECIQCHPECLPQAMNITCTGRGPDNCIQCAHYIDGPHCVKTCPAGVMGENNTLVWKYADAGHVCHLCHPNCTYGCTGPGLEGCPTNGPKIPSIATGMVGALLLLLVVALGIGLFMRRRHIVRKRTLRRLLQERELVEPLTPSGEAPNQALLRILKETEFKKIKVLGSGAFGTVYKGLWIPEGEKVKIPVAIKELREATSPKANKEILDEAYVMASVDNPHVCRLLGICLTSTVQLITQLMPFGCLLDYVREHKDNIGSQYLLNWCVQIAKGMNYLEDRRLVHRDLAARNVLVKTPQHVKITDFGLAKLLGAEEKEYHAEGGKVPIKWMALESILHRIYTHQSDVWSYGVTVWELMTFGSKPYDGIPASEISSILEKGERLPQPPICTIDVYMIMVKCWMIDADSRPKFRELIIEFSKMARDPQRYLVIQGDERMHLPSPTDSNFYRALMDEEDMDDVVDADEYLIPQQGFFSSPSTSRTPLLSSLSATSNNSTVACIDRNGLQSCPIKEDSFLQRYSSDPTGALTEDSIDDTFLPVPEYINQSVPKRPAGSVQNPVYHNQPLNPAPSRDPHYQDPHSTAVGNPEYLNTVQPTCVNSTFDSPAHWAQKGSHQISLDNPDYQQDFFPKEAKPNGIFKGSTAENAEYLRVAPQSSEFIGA

T1 sequence (P04626 23-1255): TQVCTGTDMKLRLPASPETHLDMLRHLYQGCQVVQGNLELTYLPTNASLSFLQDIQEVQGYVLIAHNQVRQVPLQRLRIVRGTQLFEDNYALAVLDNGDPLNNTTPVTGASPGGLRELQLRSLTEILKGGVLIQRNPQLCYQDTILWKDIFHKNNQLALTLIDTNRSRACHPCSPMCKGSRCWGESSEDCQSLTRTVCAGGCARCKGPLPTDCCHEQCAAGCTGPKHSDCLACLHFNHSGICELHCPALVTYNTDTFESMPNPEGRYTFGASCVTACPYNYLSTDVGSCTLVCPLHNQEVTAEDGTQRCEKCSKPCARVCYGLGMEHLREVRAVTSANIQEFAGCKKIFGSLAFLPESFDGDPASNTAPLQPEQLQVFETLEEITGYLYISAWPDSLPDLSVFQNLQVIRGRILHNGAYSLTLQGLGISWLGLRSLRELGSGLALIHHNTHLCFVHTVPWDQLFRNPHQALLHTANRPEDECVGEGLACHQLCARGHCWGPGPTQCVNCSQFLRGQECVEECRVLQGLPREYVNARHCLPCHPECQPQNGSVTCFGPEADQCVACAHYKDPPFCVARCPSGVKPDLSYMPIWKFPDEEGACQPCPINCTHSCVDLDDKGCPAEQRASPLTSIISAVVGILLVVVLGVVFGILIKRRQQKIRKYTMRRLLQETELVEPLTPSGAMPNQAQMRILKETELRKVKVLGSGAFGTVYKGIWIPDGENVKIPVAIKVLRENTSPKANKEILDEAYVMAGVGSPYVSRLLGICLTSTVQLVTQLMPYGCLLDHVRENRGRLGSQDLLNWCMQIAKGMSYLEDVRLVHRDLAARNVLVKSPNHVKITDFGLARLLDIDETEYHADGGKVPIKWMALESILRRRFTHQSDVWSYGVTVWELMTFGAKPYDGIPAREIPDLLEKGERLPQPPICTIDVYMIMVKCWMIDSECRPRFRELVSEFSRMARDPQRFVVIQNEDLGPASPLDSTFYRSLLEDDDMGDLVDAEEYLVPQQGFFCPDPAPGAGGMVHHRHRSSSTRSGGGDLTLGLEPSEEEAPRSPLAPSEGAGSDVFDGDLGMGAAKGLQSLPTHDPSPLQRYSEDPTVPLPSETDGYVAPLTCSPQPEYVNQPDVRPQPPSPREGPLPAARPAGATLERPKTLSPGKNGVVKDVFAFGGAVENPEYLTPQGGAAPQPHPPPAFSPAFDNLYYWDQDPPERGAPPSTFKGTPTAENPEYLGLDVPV
insulin-like growth factor 1 receptor (IGF1R), sequence (P08069 31-736): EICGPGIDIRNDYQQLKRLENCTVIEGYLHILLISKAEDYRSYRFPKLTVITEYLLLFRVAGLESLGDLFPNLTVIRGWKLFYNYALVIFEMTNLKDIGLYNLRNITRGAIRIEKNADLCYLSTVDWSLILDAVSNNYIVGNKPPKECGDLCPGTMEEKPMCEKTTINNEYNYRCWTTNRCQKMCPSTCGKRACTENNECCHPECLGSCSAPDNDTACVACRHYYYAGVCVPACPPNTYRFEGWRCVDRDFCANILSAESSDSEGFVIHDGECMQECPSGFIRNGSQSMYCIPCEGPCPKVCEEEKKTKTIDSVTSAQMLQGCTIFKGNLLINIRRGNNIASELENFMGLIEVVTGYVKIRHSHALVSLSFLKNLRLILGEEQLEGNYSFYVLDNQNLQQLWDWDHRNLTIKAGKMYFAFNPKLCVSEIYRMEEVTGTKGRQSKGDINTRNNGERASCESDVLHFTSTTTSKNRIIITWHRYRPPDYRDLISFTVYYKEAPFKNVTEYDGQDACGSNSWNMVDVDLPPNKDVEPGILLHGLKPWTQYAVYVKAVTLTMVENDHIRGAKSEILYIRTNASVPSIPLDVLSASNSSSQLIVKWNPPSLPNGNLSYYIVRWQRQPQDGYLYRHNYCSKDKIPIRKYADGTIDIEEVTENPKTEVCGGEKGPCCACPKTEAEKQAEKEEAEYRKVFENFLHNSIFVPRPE
insulin-like growth factor 1 receptor (IGF1R), sequence (P08069 741-1367): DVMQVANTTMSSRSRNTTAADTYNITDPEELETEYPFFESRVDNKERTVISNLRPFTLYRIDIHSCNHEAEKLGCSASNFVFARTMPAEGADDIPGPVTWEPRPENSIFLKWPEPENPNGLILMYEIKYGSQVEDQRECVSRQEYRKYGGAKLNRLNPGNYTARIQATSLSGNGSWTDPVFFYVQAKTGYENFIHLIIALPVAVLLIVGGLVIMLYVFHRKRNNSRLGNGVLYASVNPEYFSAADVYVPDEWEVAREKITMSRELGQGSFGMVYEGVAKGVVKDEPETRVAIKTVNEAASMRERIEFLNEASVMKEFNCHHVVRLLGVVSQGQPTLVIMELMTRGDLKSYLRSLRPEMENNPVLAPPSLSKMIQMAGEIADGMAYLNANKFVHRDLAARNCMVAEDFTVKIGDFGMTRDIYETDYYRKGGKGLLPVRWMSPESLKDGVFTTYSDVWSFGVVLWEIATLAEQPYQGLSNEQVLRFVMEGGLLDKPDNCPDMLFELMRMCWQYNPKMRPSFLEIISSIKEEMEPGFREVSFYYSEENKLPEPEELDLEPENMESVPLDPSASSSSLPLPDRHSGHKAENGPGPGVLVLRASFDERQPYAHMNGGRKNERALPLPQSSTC

inhibition at 1 µM (HER2): 25 to 30% | inhibition at 1 µM [1]: 40% | inhibition at 1 µM (EGFR): 25 to 30%
SMILES: COc1ccccc1/C=C/c1nc(Nc2ccc3c(c2)OCO3)c2ccccc2n1 [IS20, N-(1,3-benzodioxol-5-yl)-2-[(E)-2-(2-methoxyphenyl)vinyl] quinazolin-4-amine]
